This is an account of results in patent US20230192661A1, “1, 4, 5, 6-TETRAHYDROPYRIMIDINE-2-AMINE DERIVATIVE” (UBE Corporation, priority 2020, published 2023).

For data set [1], the system named is TGF-β activation (phosphorylated SMAD3). Nature of the data set: TGF-β activation inhibition test (inhibition of SMAD3 phosphorylation in TFK-1 cells). The format is cell-based. The settings on record: 48 h, fibronectin-coated plate, cultured 2 days, read-out: IC50 (rate of inhibition of phosphorylated SMAD3). How it is done:
In Test Example 3, the inhibition of TGF-β activation by a compound was detected with the inhibition of SMAD3 phosphorylation as an index. In Test Example 3, the same reagents as in Test Example 1 were used unless otherwise specified.
Human fibronectin was prepared at 14 μg/mL with PBS and then dispensed at 50 μL/well to a 96-well plate. The plate was left standing at room temperature for 1 hour or longer, followed by the removal of the fibronectin solution. The plate was washed with PBS and used as a coated plate.
A test compound dissolved in DMSO was added to RPMI medium 1640 (manufactured by Thermo Fisher Scientific, Inc., 11875) containing 1% FBS and 1% penicillin/streptomycin/amphotericin B to prepare a medium containing the test compound having a concentration of two times the final concentration. This medium was added at 100 μL/well to the coated plate. TFK-1 cells (Cell Resource Center for Biomedical Research, Institute of Development, Aging and Cancer, Tohoku University) cultured in RPMI medium 1640 containing 10% FBS and 1% penicillin/streptomycin/amphotericin B were suspended in RPMI medium 1640 containing 1% FBS and 1% penicillin/streptomycin/amphotericin B to prepare a cell suspension of 1×10^6 cells/mL. The prepared cell suspension was further added at 100 μL/well and cultured for 2 days in a 5% CO2 incubator (37° C.).
Phosphorylated SMAD3 in the cells thus cultured for 2 days was measured using Phospho-SMAD3 (Ser423/425) cellular kit (manufactured by cisbio, 63ADK025), and a DeltaF value was calculated according to the calculation expression of the kit. Inhibition when 10 μM LY364947 (FUJIFILM Wako Pure Chemical Corp., 123-05981) was added instead of the test compound was defined as 100% inhibition, and inhibition when DMSO was added instead was defined as 0% inhibition. The rate of inhibition of phosphorylated SMAD3 by the test compound was calculated according to the following expression.
Rate of inhibition of phosphorylated SMAD3 (%)=[1−{(DeltaF value in the case of adding the test compound)−(DeltaF value in the case of adding 10 μM LY364947)}/{(DeltaF value in the case of adding DMSO)−(DeltaF value in the case of adding 10 μM LY364947)}]×100
An IC50 value was calculated from the rate of inhibition of phosphorylated SMAD3 by the test compound. A: IC50<10 nM, B: 10 nM≤IC50<50 nM, C: 50 nM≤IC50<100 nM, or D: IC50≥100 nM.

Data set [2] can be described thus: Transcellular transport test using Caco2 cell. The settings on record: human, Caco-2; Caco2 monolayer, A-to-B, 10 μM compound, pH 7.4, 90 minutes. The format is in vitro ADME. As to the method:
Caco2 cells (purchased from ATCC) were cultured in DMEM medium (Thermo Fisher Scientific, Inc., 11965) containing 10% FBS (Thermo Fisher Scientific, Inc., 10082) and 1% penicillin/streptomycin/amphotericin B (Thermo Fisher Scientific, Inc., 15240). A transcellular transport test was carried out in accordance with MultiScreen Caco2 Drug Transport Assembly in a 96-well system (Application Note AN1727EN, MultiScreen Caco-2 Assay System, Merck) by partially modifying it. The Caco2 cells were inoculated at a cell density of 4×10^4 cells/well onto a micropore polycarbonate insert of a 96-well plate (Merck, Millcell-96 culture insert plate 0.4 μm pore size, well membrane area=0.11 cm^2, PSHT004S5) and cultured for 20 to 22 days, and the resulting monolayer was used in the transcellular transport test. The medium of the inoculated cells was replaced with a fresh one every 3 to 4 days.
Apical-to-basolateral (A-to-B) transport in the Caco2 cell monolayer membrane was performed by using HBSS (Thermo Fisher Scientific, Inc., 14025) medium (pH=7.4) containing 20 mM HEPES (Thermo Fisher Scientific, Inc., 15630), and adding HEPES-containing HBSS medium containing 10 μM compound (a 10 mM solution of the compound in DMSO was added at a 1000-fold dilution; final DMSO concentration: 0.1%) at 75 μL/well to the apical side and HEPES-containing HBSS medium supplemented with no compound at 250 μL/well to the basolateral side, followed by culture at 37° C. for 90 minutes. After culture, a 100 μL aliquot was collected from the basolateral side, and the concentration of a permeated compound was measured by LC-MS/MS under measurement conditions mentioned later. Papp (apparent permeability; cm/sec) was calculated from the determined concentration. Papp was determined according to the expression given below by calculating the slope (dA/dt; nmol/sec) of a straight line drawn between two points 0 minutes and zero amount of the compound in a graph plotted with an assay time (90 min) on the abscissa against the amount of the compound in the solution on the permeated side on the ordinate. As for an assay concentration, the concentration in the compound in the HEPES-containing HBSS medium containing the added compound was measured by UV-HPLC under measurement conditions mentioned later.
Papp (cm/sec)=C0×S×(dA/dt)
C0: assay concentration, S: plate membrane area=0.11 cm^2

Molecules are shown by their SMILES. Where only a bound is given, the exact number is not on record here.

As for `O=C(O)C[C@H](NC(=O)CNC(=O)c1cc(NC2=NCC(F)CN2)c2cn[nH]c2c1)c1cccc(C(F)(F)F)c1F` (stereo partly drawn) [Example 9-(b), (3S)-3-(2-(4-((5-fluoro-1,4,5,6-tetrahydropyrimidin-2-yl)amino)-1H-indazole-6-carboxamido)acetamido)-3-(2-fluoro-3-(trifluoromethyl)phenyl)propanoic acid], in data set [1], the IC50 was in the range of 50 to 100 nM. The Papp A→B at 90 min, 10 μM in data set [2] is > 1 ×10⁻⁶ cm/s.

On to `O=C(O)C[C@H](NC(=O)CNC(=O)c1cc(NC2=NCC(F)CN2)c2cn[nH]c2c1)c1cc(Br)cc(OC(F)F)c1` (stereo partly drawn) [Example 26-(b), (3S)-3-(3-bromo-5-(difluoromethoxy)phenyl)-3-(2-(4-((5-fluoro-1,4,5,6-tetrahydropyrimidin-2-yl)amino)-1H-indazole-6-carboxamido)acetamido)propanoic acid], for which the IC50 in data set [1] is < 10 nM. Moreover, in data set [2], the Papp A→B at 90 min, 10 μM was > 1 ×10⁻⁶ cm/s.

`O=C(O)C[C@H](NC(=O)CNC(=O)c1cc(NC2=NCC(F)CN2)c2cn[nH]c2c1)c1cc(OC(F)F)cc(-n2cccn2)c1` (stereo partly drawn) [Example 29-(b), (3S)-3-(3-(difluoromethoxy)-5-(1H-pyrazol-1-yl)phenyl)-3-(2-(4-((5-fluoro-1,4,5,6-tetrahydropyrimidin-2-yl)amino)-1H-indazole-6-carboxamido)acetamido)propanoic acid]: the IC50 in data set [1] was < 10 nM. In data set [2], the Papp A→B at 90 min, 10 μM fell in the range of 0.1 to 0.5 ×10⁻⁶ cm/s.

For the compound `O=C(O)C[C@H](NC(=O)CNC(=O)c1cc(NC2=NCC(F)CN2)c2cn[nH]c2c1)c1cc(Cl)cc(Br)c1` (stereo partly drawn) [Example 18-(b), (3S)-3-(3-bromo-5-chlorophenyl)-3-(2-(4-((5-fluoro-1,4,5,6-tetrahydropyrimidin-2-yl)amino)-1H-indazole-6-carboxamido)acetamido)propanoic acid], in data set [1], the concentration for half-maximal inhibition (IC50) fell in the range of 10 to 50 nM. In data set [2], the Papp A→B at 90 min, 10 μM is > 1 ×10⁻⁶ cm/s.

Regarding `O=C(O)C[C@H](NC(=O)CNC(=O)c1cc(NC2=NCC(F)CN2)c2cn[nH]c2c1)c1cc(C(F)(F)F)ccc1F` (stereo partly drawn) [Example 11-(b), (3S)-3-(2-(4-((5-fluoro-1,4,5,6-tetrahydropyrimidin-2-yl)amino)-1H-indazole-6-carboxamido)acetamido)-3-(2-fluoro-5-(trifluoromethyl)phenyl)propanoic acid], the IC50 in data set [1] is < 10 nM. The Papp A→B at 90 min, 10 μM in data set [2] was > 1 ×10⁻⁶ cm/s.

Turning to `O=C(O)C[C@H](NC(=O)CNC(=O)c1cc(NC2=NCC(F)CN2)c2cn[nH]c2c1)c1cccc(Br)c1` (stereo partly drawn) [Example 42-(b), (3S)-3-(3-bromophenyl)-3-(2-(4-((5-fluoro-1,4,5,6-tetrahydropyrimidin-2-yl)amino)-1H-indazole-6-carboxamido)acetamido)propanoic acid], in data set [1], the IC50 was in the range of 10 to 50 nM. For the same compound, the apical-to-basolateral permeability (Papp A→B) at 90 min, 10 μM in data set [2] is > 1 ×10⁻⁶ cm/s.

With `O=C(O)C[C@H](NC(=O)CNC(=O)c1cc(NC2=NCC(F)CN2)c2cn[nH]c2c1)c1cc(OC(F)F)cc(C(F)(F)F)c1` (stereo partly drawn) [Example 24-(b), (3S)-3-(3-(difluoromethoxy)-5-(trifluoromethyl)phenyl)-3-(2-(4-((5-fluoro-1,4,5,6-tetrahydropyrimidin-2-yl)amino)-1H-indazole-6-carboxamido)acetamido)propanoic acid], the IC50 in data set [1] was < 10 nM. In data set [2], this compound had a Papp A→B at 90 min, 10 μM of 0.5 to 1 ×10⁻⁶ cm/s.

For `O=C(O)C[C@H](NC(=O)CNC(=O)c1cc(NC2=NCCCN2)c2cn[nH]c2c1)c1cc(Cl)cc(C(F)(F)F)c1` [Example 51-(b), (S)-3-(3-chloro-5-(trifluoromethyl)phenyl)-3-(2-(4-((1,4,5,6-tetrahydropyrimidin-2-yl)amino)-1H-indazole-6-carboxamido)acetamido)propanoic acid], the half-maximal inhibitory concentration (IC50) in data set [1] lay within 50 to 100 nM. The Papp A→B at 90 min, 10 μM in data set [2] is > 1 ×10⁻⁶ cm/s.

`O=C(O)C[C@H](NC(=O)CNC(=O)c1cc(NC2=NCC(F)CN2)c2cn[nH]c2c1)c1cc(Br)cc(I)c1` (stereo partly drawn) [Example 20-(b), (3S)-3-(3-bromo-5-iodophenyl)-3-(2-(4-((5-fluoro-1,4,5,6-tetrahydropyrimidin-2-yl)amino)-1H-indazole-6-carboxamido)acetamido)propanoic acid]: the IC50 in data set [1] was < 10 nM. In addition, in data set [2], the Papp A→B at 90 min, 10 μM is > 1 ×10⁻⁶ cm/s.

As to `O=C(O)C[C@H](NC(=O)CNC(=O)c1cc(NC2=NCC(F)CN2)c2cn[nH]c2c1)c1ccc(OC(F)F)cc1` (stereo partly drawn) [Example 46-(b), (3S)-3-(4-(difluoromethoxy)phenyl)-3-(2-(4-((5-fluoro-1,4,5,6-tetrahydropyrimidin-2-yl)amino)-1H-indazole-6-carboxamido)acetamido)propanoic acid], in data set [1], the half-inhibitory concentration (IC50) fell in the range of 50 to 100 nM. Further, the Papp A→B at 90 min, 10 μM in data set [2] is > 1 ×10⁻⁶ cm/s.

In the case of `O=C(O)C[C@H](NC(=O)CNC(=O)c1cc(NC2=NCC(F)CN2)c2cn[nH]c2c1)c1cccc(C(F)F)c1` (stereo partly drawn) [Example 38-(b), (3S)-3-(3-(difluoromethyl)phenyl)-3-(2-(4-((5-fluoro-1,4,5,6-tetrahydropyrimidin-2-yl)amino)-1H-indazole-6-carboxamido)acetamido)propanoic acid], the IC50 in data set [1] lay in the range of 50 to 100 nM. In data set [2], the Papp A→B at 90 min, 10 μM was > 1 ×10⁻⁶ cm/s.

Take `O=C(O)C[C@H](NC(=O)CNC(=O)c1cc(NC2=NCC(O)CN2)c2cn[nH]c2c1)c1cc(Cl)cc(C(F)(F)F)c1` (stereo partly drawn) [Example 50-(b), (3S)-3-(3-chloro-5-(trifluoromethyl)phenyl)-3-(2-(4-((5-hydroxy-1,4,5,6-tetrahydropyrimidin-2-yl)amino)-1H-indazole-6-carboxamido)acetamido)propanoic acid]: the IC50 in data set [1] is ≥ 100 nM. In addition, the Papp A→B at 90 min, 10 μM in data set [2] was > 1 ×10⁻⁶ cm/s.

As to `O=C(O)C[C@H](NC(=O)CNC(=O)c1cc(NC2=NCC(F)CN2)c2cn[nH]c2c1)c1cc(Br)cc(OC(F)(F)F)c1` (stereo partly drawn) [Example 32-(b), (3S)-3-(3-bromo-5-(trifluoromethoxy)phenyl)-3-(2-(4-((5-fluoro-1,4,5,6-tetrahydropyrimidin-2-yl)amino)-1H-indazole-6-carboxamido)acetamido)propanoic acid], the IC50 in data set [1] is < 10 nM. Further, the Papp A→B at 90 min, 10 μM in data set [2] is > 1 ×10⁻⁶ cm/s.

As for `O=C(O)C[C@H](NC(=O)CNC(=O)c1cc(NC2=NCC(F)CN2)c2cn[nH]c2c1)c1ccc(F)c(OC(F)(F)F)c1` (stereo partly drawn) [Example 34-(b), (3S)-3-(2-(4-((5-fluoro-1,4,5,6-tetrahydropyrimidin-2-yl)amino)-1H-indazole-6-carboxamido)acetamido)-3-(4-fluoro-3-(trifluoromethoxy)phenyl)propanoic acid], the IC50 in data set [1] is < 10 nM. In addition, in data set [2], the Papp A→B at 90 min, 10 μM is > 1 ×10⁻⁶ cm/s.

`O=C(O)C[C@H](NC(=O)CNC(=O)c1cc(NC2=NCC(F)CN2)c2cn[nH]c2c1)c1ccc(F)c(OC(F)F)c1` (stereo partly drawn) [Example 27-(b), (3S)-3-(3-(difluoromethoxy)-4-fluorophenyl)-3-(2-(4-((5-fluoro-1,4,5,6-tetrahydropyrimidin-2-yl)amino)-1H-indazole-6-carboxamido)acetamido)propanoic acid]: the half-maximal inhibitory concentration (IC50) in data set [1] is < 10 nM. In addition, the apparent permeability from apical to basolateral (Papp A→B) at 90 min, 10 μM in data set [2] is > 1 ×10⁻⁶ cm/s.
